Assay results published in patent US8959984B2, “Proteome-wide quantification of small molecule binding to cellular target proteins” (priority 2007, dated 2015).
“And” between values parts separate entries of the source, which are not always exact repeats. Equal entries are not always repeated.

Assays:
BLMH = target: T1, BLMH (Homo sapiens, UniProt Q13867); assay: binding to AX14596 beads (HeLa lysate, SILAC MS)
T1 construct: endogenous in cells; host or cells: HeLa S3
T1 sequence (Q13867 1-455): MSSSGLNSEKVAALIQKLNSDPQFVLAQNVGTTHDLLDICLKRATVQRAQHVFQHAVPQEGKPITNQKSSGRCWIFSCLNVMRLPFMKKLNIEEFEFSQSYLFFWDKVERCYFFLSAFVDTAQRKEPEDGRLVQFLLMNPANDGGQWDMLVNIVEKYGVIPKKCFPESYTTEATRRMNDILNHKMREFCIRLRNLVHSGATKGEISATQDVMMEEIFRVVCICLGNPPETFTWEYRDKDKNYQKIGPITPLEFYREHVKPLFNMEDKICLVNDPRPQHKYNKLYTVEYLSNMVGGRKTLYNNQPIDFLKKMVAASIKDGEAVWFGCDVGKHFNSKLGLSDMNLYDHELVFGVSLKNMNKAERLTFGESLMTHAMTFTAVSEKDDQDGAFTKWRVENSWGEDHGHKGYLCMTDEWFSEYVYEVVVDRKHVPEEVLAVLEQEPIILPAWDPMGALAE

GAK = target: T2, GAK (Homo sapiens, UniProt O14976); assay: binding to AX14596 beads (HeLa lysate, SILAC MS)
T2 sequence (O14976 1-1311): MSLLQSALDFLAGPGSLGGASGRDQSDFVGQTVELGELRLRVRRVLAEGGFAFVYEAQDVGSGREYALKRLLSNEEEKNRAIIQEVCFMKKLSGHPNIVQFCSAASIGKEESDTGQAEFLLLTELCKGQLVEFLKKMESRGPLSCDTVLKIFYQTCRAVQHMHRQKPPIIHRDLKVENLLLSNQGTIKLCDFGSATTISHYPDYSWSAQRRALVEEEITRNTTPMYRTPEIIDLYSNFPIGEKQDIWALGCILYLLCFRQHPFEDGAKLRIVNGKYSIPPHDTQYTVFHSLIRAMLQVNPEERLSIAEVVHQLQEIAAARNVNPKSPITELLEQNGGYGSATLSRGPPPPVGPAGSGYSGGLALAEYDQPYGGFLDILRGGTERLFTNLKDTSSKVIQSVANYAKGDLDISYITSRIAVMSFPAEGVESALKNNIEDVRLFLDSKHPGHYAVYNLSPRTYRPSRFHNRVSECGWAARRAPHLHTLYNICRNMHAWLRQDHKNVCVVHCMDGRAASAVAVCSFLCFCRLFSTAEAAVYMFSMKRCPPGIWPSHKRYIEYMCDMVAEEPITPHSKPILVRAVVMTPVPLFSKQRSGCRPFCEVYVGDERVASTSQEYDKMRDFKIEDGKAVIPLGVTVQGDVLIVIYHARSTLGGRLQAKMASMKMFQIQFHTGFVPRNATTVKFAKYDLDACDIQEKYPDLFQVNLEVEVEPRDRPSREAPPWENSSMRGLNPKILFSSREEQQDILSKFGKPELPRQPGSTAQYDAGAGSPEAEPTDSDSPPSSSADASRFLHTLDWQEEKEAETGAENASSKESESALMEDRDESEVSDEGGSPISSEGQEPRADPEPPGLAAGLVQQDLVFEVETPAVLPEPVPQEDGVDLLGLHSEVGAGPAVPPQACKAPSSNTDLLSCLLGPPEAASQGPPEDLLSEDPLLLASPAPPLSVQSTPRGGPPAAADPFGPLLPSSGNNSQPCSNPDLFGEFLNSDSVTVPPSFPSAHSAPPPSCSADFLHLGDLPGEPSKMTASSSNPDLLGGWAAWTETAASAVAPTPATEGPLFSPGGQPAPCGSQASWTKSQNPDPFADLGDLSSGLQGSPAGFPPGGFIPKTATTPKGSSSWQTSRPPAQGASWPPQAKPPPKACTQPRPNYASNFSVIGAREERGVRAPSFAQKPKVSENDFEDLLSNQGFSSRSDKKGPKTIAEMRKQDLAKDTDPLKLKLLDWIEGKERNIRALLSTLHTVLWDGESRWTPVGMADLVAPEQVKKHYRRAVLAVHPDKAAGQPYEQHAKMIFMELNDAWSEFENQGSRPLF

## COc1cc2ncnc(Nc3ccc(F)c(Cl)c3)c2cc1OCCCN [AX14596]
BLMH
  Ki: 53.6 µM
  r (3 mg/1 mg lysate): 11.91
  r (5 h/2.5 h inc. time): 1.31
  rAVERAGE (2. inc/1. inc): 0.35
  rAVERAGE (control/1. inc): 0.08
GAK
  Ki: 82 µM and 82.1 µM
  r (3 mg/1 mg lysate): 2.59
  r (5 h/2.5 h inc. time): 1.05
  rAVERAGE (2. inc/1. inc): 0.45
  rAVERAGE (control/1. inc): 0.04
GAK; bound to AX14596 beads
  % BOUND: 55%
